Results: article PMC11211886 (Frontiers in Pharmacology, 2024)
pIC50: −log10 of the molar value.

Tests used:
OAT1 = molecular target: T1, OAT1 (Homo sapiens, UniProt Q4U2R8); test: in vitro
T1 sequence (Q4U2R8 1-563): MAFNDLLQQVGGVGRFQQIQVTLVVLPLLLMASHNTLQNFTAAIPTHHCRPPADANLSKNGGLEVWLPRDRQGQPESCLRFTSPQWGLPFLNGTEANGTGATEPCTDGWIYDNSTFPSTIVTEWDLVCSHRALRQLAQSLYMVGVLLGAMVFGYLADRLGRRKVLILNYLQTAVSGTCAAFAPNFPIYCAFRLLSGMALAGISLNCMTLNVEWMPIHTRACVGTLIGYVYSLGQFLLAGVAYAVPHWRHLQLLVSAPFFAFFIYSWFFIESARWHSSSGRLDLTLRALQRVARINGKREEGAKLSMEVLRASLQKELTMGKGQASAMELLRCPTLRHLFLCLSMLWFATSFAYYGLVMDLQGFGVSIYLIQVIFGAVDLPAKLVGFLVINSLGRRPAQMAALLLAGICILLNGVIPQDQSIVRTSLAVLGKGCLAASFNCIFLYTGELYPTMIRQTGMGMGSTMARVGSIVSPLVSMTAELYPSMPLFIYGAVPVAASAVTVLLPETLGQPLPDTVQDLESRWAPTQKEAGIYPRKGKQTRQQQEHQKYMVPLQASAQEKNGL
Procedure: (§1) The pre-incubation solutions were removed, and incubation solutions containing the inhibitors and probe substrates (or transport buffer containing an equal volume of vehicle control and probe substrates) were added and incubated at 37°C for 2 min (5 min for OATP1B3). The probe substrate for OAT1 was 4-aminohippuric acid (10 μM), for OAT3 was estrone 3-sulfate (10 μM), for OCT2 was metformin (100 μM), for OATP1B1 was β-estradiol 17-(β-D-glucuronide) (5 μM), for OATP1B3 was β-estradiol 17-(β-D-glucuronide) (10 μM), and for MATE1 and MATE2-K was tetraethylammonium (10 μM). After incubation, cells were washed three times with ice-cold transport buffer (25 mM HEPES, pH 7.4, pH 8.0 for overexpressing MATE1 and MATE2-K HEK293 cells) and lysed in distilled water. The concentrations of probe substrates were determined by LC-MS/MS, and a BCA Kit (Solarbio ®Life Sciences, Beijing, China) was used to determine the protein content in the cell lysate.
(§2) where C is the concentration of the drug in the cell lysate (nM), P is the protein concentration of the cell lysate (mg/mL), and T is the incubation time (minute). Uptake ratetest compound is the uptake rate of the substrate in the presence of the test compound. Uptake ratevehicle control is the uptake rate of the substrate in the presence of the vehicle control. Uptake ratepassive is the uptake rate of the substrate in the presence of the positive inhibitor at the top test concentration.

OATP1B3 = molecular target: T2, OATP1B3 (Homo sapiens, UniProt Q9NPD5); test: OATP1B3 inhibition, β-estradiol 17-(β-D-glucuronide) uptake in transfected HEK293 cells
T2 sequence (Q9NPD5 1-702): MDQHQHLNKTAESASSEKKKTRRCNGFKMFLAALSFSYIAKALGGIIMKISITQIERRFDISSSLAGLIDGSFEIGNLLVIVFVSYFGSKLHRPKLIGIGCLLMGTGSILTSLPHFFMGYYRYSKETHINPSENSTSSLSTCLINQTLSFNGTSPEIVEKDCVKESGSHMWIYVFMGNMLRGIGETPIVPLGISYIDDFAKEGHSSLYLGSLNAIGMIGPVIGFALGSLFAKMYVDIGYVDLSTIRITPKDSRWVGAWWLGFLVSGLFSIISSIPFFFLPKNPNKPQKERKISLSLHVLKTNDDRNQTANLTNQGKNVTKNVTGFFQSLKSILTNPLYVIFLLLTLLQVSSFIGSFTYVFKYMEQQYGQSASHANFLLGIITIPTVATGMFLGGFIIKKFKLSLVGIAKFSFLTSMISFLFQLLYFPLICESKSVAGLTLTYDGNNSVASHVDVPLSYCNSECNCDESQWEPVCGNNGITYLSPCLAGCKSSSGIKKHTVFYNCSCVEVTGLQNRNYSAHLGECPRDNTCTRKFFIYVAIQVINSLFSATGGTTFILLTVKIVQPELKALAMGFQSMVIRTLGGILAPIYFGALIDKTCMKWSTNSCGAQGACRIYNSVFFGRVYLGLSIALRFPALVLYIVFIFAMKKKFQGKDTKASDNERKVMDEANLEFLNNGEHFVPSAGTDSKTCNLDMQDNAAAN
Procedure: as §1, §2

plasma proteins = test: Plasma protein binding (RED), dog plasma; assay type: in vitro ADME
Procedure: The plate containing plasma and buffer was equilibrated for 6 h in a 37°C water shaking bath. After incubation, aliquots of buffer and plasma (20 µL) on both sides were collected and precipitated using organic solvents. […] The post-dialysis recovery of amdizalisib was also measured.

Q: With `C[C@H](Nc1ncnc(N)c1C#N)c1cc2ncc(Cl)n2nc1-c1ccccc1` [Amdizalisib] as the molecule, how does the pIC50 (OAT1) read?
A: 5.38

Q: What about the Percentage transported (OAT1; OAT1, compound 0.3 μM) of the same molecule?
A: 96.4%

Q: What about the Uptake rate (OAT1; OAT1, compound 0.3 μM) of the same molecule?
A: 489±79.6 pmol/mg protein/min

Q: What about the Percentage transported (OAT1; OAT1, compound 1 μM) of the same molecule?
A: 91.6%

Q: What about the Uptake rate (OAT1; OAT1, compound 1 μM) of the same molecule?
A: 467±34.8 pmol/mg protein/min

Q: What about the Percentage transported (OAT1; OAT1, compound 3 μM) of the same molecule?
A: 50.9%

Q: And the Uptake rate (OAT1; OAT1, compound 3 μM)?
A: 278±37.1 pmol/mg protein/min

Q: And the Percentage transported (OAT1; OAT1, compound 10 μM)?
A: 33.3%

Q: What about the Uptake rate (OAT1; OAT1, compound 10 μM) of the same molecule?
A: 196±6.18 pmol/mg protein/min

Q: And the Percentage transported (OAT1; OAT1, compound 30 μM)?
A: 7.47%

Q: What about the Uptake rate (OAT1; OAT1, compound 30 μM) of the same molecule?
A: 76.5±17.7 pmol/mg protein/min

Q: And the Percentage transported (OAT1; OAT1, compound 100 μM)?
A: -7.21%

Q: What about the Uptake rate (OAT1; OAT1, compound 100 μM) of the same molecule?
A: 8.38±1.24 pmol/mg protein/min

Q: What about the inhibition at 2 min, 0.3 µM (OAT1; human, pH 7.4) of the same molecule?
A: 3.65%

Q: And the inhibition at 2 min, 1 µM (OAT1; human, pH 7.4)?
A: 8.44%

Q: What about the inhibition at 2 min, 3 µM (OAT1; human, pH 7.4) of the same molecule?
A: 49.1%

Q: What about the inhibition at 2 min, 10 µM (OAT1; human, pH 7.4) of the same molecule?
A: 66.7%

Q: What about the inhibition at 2 min, 30 µM (OAT1; human, pH 7.4) of the same molecule?
A: 92.5%

Q: What about the inhibition at 2 min, 100 µM (OAT1; human, pH 7.4) of the same molecule?
A: 107%

Q: What about the “calculated R value (OAT1)” value (OAT1; renal OATs) of the same molecule?
A: < 1.1

Q: What about the pIC50 (OATP1B3) of the same molecule?
A: 5.30

Q: And the Percentage transported (OATP1B3; human, 5 min, 0.3 μM, pH 7.4)?
A: 94.5%

Q: What about the Uptake rate (OATP1B3; human, 5 min, 0.3 μM, pH 7.4) of the same molecule?
A: 62.4±5.58 pmol/mg protein/min

Q: What about the Percentage transported (OATP1B3; human, 5 min, 1 μM, pH 7.4) of the same molecule?
A: 89.2%

Q: What about the Uptake rate (OATP1B3; human, 5 min, 1 μM, pH 7.4) of the same molecule?
A: 59.1±6.36 pmol/mg protein/min

Q: And the Percentage transported (OATP1B3; human, 5 min, 3 μM, pH 7.4)?
A: 68.1%

Q: What about the Uptake rate (OATP1B3; human, 5 min, 3 μM, pH 7.4) of the same molecule?
A: 46.2±10.1 pmol/mg protein/min

Q: And the Percentage transported (OATP1B3; human, 5 min, 10 μM, pH 7.4)?
A: 29.3%

Q: And the Uptake rate (OATP1B3; human, 5 min, 10 μM, pH 7.4)?
A: 22.4±1.00 pmol/mg protein/min

Q: What about the Percentage transported (OATP1B3; human, 5 min, 30 μM, pH 7.4) of the same molecule?
A: 3.82%

Q: What about the Uptake rate (OATP1B3; human, 5 min, 30 μM, pH 7.4) of the same molecule?
A: 6.76±0.372 pmol/mg protein/min

Q: And the Percentage transported (OATP1B3; human, 5 min, 100 μM, pH 7.4)?
A: -4.02%

Q: What about the Uptake rate (OATP1B3; human, 5 min, 100 μM, pH 7.4) of the same molecule?
A: 1.99±0.315 pmol/mg protein/min

Q: What about the “calculated R value (OATP1B3)” value (OATP1B3; human, 5 min, pH 7.4) of the same molecule?
A: 5.1

Q: What about the inhibition at 5 min, 0.3 µM (OATP1B3; human, pH 7.4) of the same molecule?
A: 5.47%

Q: And the inhibition at 5 min, 1 µM (OATP1B3; human, pH 7.4)?
A: 10.8%

Q: What about the inhibition at 5 min, 3 µM (OATP1B3; human, pH 7.4) of the same molecule?
A: 31.9%

Q: What about the inhibition at 5 min, 10 µM (OATP1B3; human, pH 7.4) of the same molecule?
A: 70.7%

Q: And the inhibition at 5 min, 30 µM (OATP1B3; human, pH 7.4)?
A: 96.2%

Q: And the inhibition at 5 min, 100 µM (OATP1B3; human, pH 7.4)?
A: 104%

Q: What about the “Binding fraction to plasma proteins, Dog” value (plasma proteins; 0.1 µM) of the same molecule?
A: 87.7 ± 5.15%

Q: And the “Binding fraction to plasma proteins, Dog” value (plasma proteins; 1 µM)?
A: 89.1 ± 0.83%

Q: And the “Binding fraction to plasma proteins, Dog” value (plasma proteins; 20 µM)?
A: 88.8 ± 0.69%
